Source: article PMC7377239, “Cardiovascular Effects of Polychlorinated Biphenyls and Their Major Metabolites” (Environmental Health Perspectives, 2020)
Where a name gives a salt, the structure may show the parent alone. Read-outs that look alike come from different tables or passages of the source.

Test system: iCell cardiomyocytes (human iPSC-derived cardiomyocytes)
Test: High-content imaging of cytotoxicity and mitochondrial integrity in iPSC-CMs
Assay type: cell-based
Conditions: Homo sapiens; for viability at 0.01 µM / activity at 0.01 µM / viability at 0.1 µM / activity at 0.1 µM / viability at 1 µM / activity at 1 µM / viability at 10 µM / activity at 10 µM / viability at 100 µM / activity at 100 µM: Cardiomyocyte, 0.00 µM = 100.00; for viability at 0.1 µM / activity at 0.1 µM: 0.10 µM; for minimal effective concentration: iPSC-CM
In short: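 Readouts from high-content images were normalized to vehicle controls containing 0.5% vol/vol DMSO. They were fit to a four-parameter logistic model in R. Points of departure were set using a cutoff of one standard deviation across vehicle control means. Where no concentration–response was seen, the top tested concentration of 100μM was assigned as the no observable adverse effect level.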

[1] = 1.5 h, read-out: cm.cam.90min POD
[2] = 1.5 h, read-out: cm.mii.90min POD
[3] = 1.5 h, read-out: cm.mito.90min POD
[4] = 1.5 h, read-out: cm.tc.90min POD
[5] = 24 h, read-out: cm.cam.24hrs POD
[6] = 24 h, read-out: cm.mii.24hrs POD
[7] = 24 h, read-out: cm.mito.24hrs POD
[8] = 24 h, read-out: cm.tc.24hrs POD

Structure (SMILES): O=S(=O)(O)Oc1ccc(-c2cccc(Cl)c2)cc1Cl [4-yl PCB 11 sulfate]
- viability at 0.01 µM (1.5 h, read-out: cm.cam.90min): 100%
- activity at 0.01 µM (1.5 h, read-out: cm.mii.90min): 101%
- activity at 0.01 µM (1.5 h, read-out: cm.mito.90min): 99.5%
- viability at 0.01 µM (1.5 h, read-out: cm.tc.90min): 100%
- viability at 0.1 µM (1.5 h, read-out: cm.cam.90min): 99.7%
- activity at 0.1 µM (1.5 h, read-out: cm.mii.90min): 117%
- activity at 0.1 µM (1.5 h, read-out: cm.mito.90min): 99.5%
- viability at 0.1 µM (1.5 h, read-out: cm.tc.90min): 99.6%
- viability at 1 µM (1.5 h, read-out: cm.cam.90min): 101%
- activity at 1 µM (1.5 h, read-out: cm.mii.90min): 114%
- activity at 1 µM (1.5 h, read-out: cm.mito.90min): 101%
- viability at 1 µM (1.5 h, read-out: cm.tc.90min): 101%
- viability at 10 µM (1.5 h, read-out: cm.cam.90min): 98.7%
- activity at 10 µM (1.5 h, read-out: cm.mii.90min): 103%
- activity at 10 µM (1.5 h, read-out: cm.mito.90min): 98.5%
- viability at 10 µM (1.5 h, read-out: cm.tc.90min): 98.6%
- viability at 100 µM (1.5 h, read-out: cm.cam.90min): 99.5%
- activity at 100 µM (1.5 h, read-out: cm.mii.90min): 108%
- activity at 100 µM (1.5 h, read-out: cm.mito.90min): 99.1%
- viability at 100 µM (1.5 h, read-out: cm.tc.90min): 99.5%
- viability at 0.01 µM (24 h, read-out: cm.cam.24hrs): 88.6%
- activity at 0.01 µM (24 h, read-out: cm.mii.24hrs): 106%
- activity at 0.01 µM (24 h, read-out: cm.mito.24hrs): 87.2%
- viability at 0.01 µM (24 h, read-out: cm.tc.24hrs): 89.5%
- viability at 0.1 µM (24 h, read-out: cm.cam.24hrs): 101%
- activity at 0.1 µM (24 h, read-out: cm.mii.24hrs): 114%
- activity at 0.1 µM (24 h, read-out: cm.mito.24hrs): 102%
- viability at 0.1 µM (24 h, read-out: cm.tc.24hrs): 102%
- viability at 1 µM (24 h, read-out: cm.cam.24hrs): 102%
- activity at 1 µM (24 h, read-out: cm.mii.24hrs): 101%
- activity at 1 µM (24 h, read-out: cm.mito.24hrs): 101%
- viability at 1 µM (24 h, read-out: cm.tc.24hrs): 102%
- viability at 10 µM (24 h, read-out: cm.cam.24hrs): 85.6%
- activity at 10 µM (24 h, read-out: cm.mii.24hrs): 102%
- activity at 10 µM (24 h, read-out: cm.mito.24hrs): 82.8%
- viability at 10 µM (24 h, read-out: cm.tc.24hrs): 86.3%
- viability at 100 µM (24 h, read-out: cm.cam.24hrs): 10.5%
- activity at 100 µM (24 h, read-out: cm.mii.24hrs): 48.4%
- activity at 100 µM (24 h, read-out: cm.mito.24hrs): 5.02%
- viability at 100 µM (24 h, read-out: cm.tc.24hrs): 10.7%
- minimal effective concentration [1]: 100 µM
- minimal effective concentration [2]: 100 µM
- minimal effective concentration [3]: 100 µM
- minimal effective concentration [4]: 100 µM
- minimal effective concentration [5]: 5.91 µM
- minimal effective concentration [6]: 49.2 µM
- minimal effective concentration [7]: 7.07 µM
- minimal effective concentration [8]: 6.38 µM

Structure (SMILES): Oc1ccc(O)c(-c2ccc(Cl)cc2)c1 [2',5'-DiOH PCB3]
- viability at 0.01 µM (1.5 h, read-out: cm.cam.90min): 104%
- activity at 0.01 µM (1.5 h, read-out: cm.mii.90min): 107%
- activity at 0.01 µM (1.5 h, read-out: cm.mito.90min): 103%
- viability at 0.01 µM (1.5 h, read-out: cm.tc.90min): 104%
- viability at 0.1 µM (1.5 h, read-out: cm.cam.90min): 94.2%
- activity at 0.1 µM (1.5 h, read-out: cm.mii.90min): 114%
- activity at 0.1 µM (1.5 h, read-out: cm.mito.90min): 93.9%
- viability at 0.1 µM (1.5 h, read-out: cm.tc.90min): 94.3%
- viability at 1 µM (1.5 h, read-out: cm.cam.90min): 100%
- activity at 1 µM (1.5 h, read-out: cm.mii.90min): 108%
- activity at 1 µM (1.5 h, read-out: cm.mito.90min): 100%
- viability at 1 µM (1.5 h, read-out: cm.tc.90min): 100%
- viability at 10 µM (1.5 h, read-out: cm.cam.90min): 101%
- activity at 10 µM (1.5 h, read-out: cm.mii.90min): 84.5%
- activity at 10 µM (1.5 h, read-out: cm.mito.90min): 99.4%
- viability at 10 µM (1.5 h, read-out: cm.tc.90min): 101%
- viability at 100 µM (1.5 h, read-out: cm.cam.90min): 0%
- activity at 100 µM (1.5 h, read-out: cm.mii.90min): 0%
- activity at 100 µM (1.5 h, read-out: cm.mito.90min): 0%
- viability at 100 µM (1.5 h, read-out: cm.tc.90min): 0%
- viability at 0.01 µM (24 h, read-out: cm.cam.24hrs): 84.9%
- activity at 0.01 µM (24 h, read-out: cm.mii.24hrs): 104%
- activity at 0.01 µM (24 h, read-out: cm.mito.24hrs): 82.4%
- viability at 0.01 µM (24 h, read-out: cm.tc.24hrs): 85.7%
- viability at 0.1 µM (24 h, read-out: cm.cam.24hrs): 100%
- activity at 0.1 µM (24 h, read-out: cm.mii.24hrs): 110%
- activity at 0.1 µM (24 h, read-out: cm.mito.24hrs): 101%
- viability at 0.1 µM (24 h, read-out: cm.tc.24hrs): 100%
- viability at 1 µM (24 h, read-out: cm.cam.24hrs): 97.7%
- activity at 1 µM (24 h, read-out: cm.mii.24hrs): 98.1%
- activity at 1 µM (24 h, read-out: cm.mito.24hrs): 94.2%
- viability at 1 µM (24 h, read-out: cm.tc.24hrs): 97.9%
- viability at 10 µM (24 h, read-out: cm.cam.24hrs): 45.5%
- activity at 10 µM (24 h, read-out: cm.mii.24hrs): 157%
- activity at 10 µM (24 h, read-out: cm.mito.24hrs): 40.2%
- viability at 10 µM (24 h, read-out: cm.tc.24hrs): 45.4%
- viability at 100 µM (24 h, read-out: cm.cam.24hrs): 0%
- activity at 100 µM (24 h, read-out: cm.mii.24hrs): 0%
- activity at 100 µM (24 h, read-out: cm.mito.24hrs): 0%
- viability at 100 µM (24 h, read-out: cm.tc.24hrs): 0%
- minimal effective concentration [1]: 32.4 µM
- minimal effective concentration [2]: 7.9 µM
- minimal effective concentration [3]: 12.7 µM
- minimal effective concentration [4]: 33.4 µM
- minimal effective concentration [5]: 1.84 µM
- minimal effective concentration [6]: 2.28 µM
- minimal effective concentration [7]: 0.97 µM
- minimal effective concentration [8]: 1.88 µM
